Tests used:
[1] = Volume of distribution in ICR mouse at 5 mg/kg, iv up to 24 hrs by LC-MS/MS analysis; assay type: ADME, organism-based; details: in vivo
Adenosine receptor A3 = molecular target: T1, Adenosine receptor A3 (Homo sapiens, UniProt P0DMS8); test: Displacement of [3H]DPCPX from human adenosine A3 receptor membrane (unknown origin) measured after 60 mins by scintillation counting analysis; assay type: cell membranes
T1 sequence (P0DMS8 whole entry): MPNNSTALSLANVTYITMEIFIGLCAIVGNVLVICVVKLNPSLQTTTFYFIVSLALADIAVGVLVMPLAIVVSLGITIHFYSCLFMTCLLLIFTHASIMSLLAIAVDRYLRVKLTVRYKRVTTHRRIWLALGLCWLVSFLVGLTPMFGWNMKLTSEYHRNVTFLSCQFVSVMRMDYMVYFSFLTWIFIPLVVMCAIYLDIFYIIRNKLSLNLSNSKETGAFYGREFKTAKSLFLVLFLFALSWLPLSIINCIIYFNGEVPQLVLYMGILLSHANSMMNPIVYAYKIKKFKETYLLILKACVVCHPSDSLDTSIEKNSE

Histone deacetylase 3 = Histone deacetylase 3 (Homo sapiens, UniProt O15379); test: Inhibition of HDAC3 (unknown origin) assessed as release of 7-amino-4-methylcoumarin incubated in room temperature for 15 min measured by Spectra max microtitre plate reader
Histone deacetylase 7 = molecular target: T2, Histone deacetylase 7 (Homo sapiens, UniProt Q8WUI4); test: Inhibition of HDAC7 (unknown origin) assessed as release of 7-amino-4-methylcoumarin incubated in room temperature for 15 min measured by Spectra max microtitre plate reader
T2 sequence (Q8WUI4 whole entry): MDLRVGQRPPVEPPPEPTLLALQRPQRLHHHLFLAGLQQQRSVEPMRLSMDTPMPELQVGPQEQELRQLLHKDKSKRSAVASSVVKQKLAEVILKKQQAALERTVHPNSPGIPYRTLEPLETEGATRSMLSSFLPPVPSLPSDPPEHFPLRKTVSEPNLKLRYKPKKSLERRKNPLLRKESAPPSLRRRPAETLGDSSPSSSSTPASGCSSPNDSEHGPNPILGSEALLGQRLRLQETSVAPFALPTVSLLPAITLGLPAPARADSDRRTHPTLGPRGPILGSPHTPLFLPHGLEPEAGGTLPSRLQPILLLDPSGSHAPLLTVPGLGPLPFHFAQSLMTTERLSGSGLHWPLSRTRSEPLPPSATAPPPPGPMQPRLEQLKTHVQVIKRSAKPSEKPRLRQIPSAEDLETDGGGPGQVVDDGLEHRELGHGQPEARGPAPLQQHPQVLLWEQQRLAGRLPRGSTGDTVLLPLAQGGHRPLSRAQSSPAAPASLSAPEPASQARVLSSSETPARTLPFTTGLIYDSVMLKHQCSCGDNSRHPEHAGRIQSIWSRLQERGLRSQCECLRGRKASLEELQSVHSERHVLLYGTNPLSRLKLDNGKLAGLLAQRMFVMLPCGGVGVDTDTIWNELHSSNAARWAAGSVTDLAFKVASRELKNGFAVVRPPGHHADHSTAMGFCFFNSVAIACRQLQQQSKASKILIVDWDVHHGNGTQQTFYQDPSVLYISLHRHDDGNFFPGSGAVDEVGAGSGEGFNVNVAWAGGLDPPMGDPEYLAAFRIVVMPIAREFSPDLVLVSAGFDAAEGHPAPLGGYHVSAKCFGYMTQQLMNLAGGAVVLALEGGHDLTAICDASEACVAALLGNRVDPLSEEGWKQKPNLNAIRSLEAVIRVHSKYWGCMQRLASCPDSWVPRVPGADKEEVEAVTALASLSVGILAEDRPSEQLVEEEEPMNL

[2] = molecular target: T3, Protein deacetylase HDAC6 (Homo sapiens, UniProt Q9UBN7); test: Inhibition of HDAC6 (unknown origin) assessed as release of 7-amino-4-methylcoumarin incubated in room temperature for 15 min measured by Spectra max microtitre plate reader
T3 sequence (Q9UBN7 whole entry): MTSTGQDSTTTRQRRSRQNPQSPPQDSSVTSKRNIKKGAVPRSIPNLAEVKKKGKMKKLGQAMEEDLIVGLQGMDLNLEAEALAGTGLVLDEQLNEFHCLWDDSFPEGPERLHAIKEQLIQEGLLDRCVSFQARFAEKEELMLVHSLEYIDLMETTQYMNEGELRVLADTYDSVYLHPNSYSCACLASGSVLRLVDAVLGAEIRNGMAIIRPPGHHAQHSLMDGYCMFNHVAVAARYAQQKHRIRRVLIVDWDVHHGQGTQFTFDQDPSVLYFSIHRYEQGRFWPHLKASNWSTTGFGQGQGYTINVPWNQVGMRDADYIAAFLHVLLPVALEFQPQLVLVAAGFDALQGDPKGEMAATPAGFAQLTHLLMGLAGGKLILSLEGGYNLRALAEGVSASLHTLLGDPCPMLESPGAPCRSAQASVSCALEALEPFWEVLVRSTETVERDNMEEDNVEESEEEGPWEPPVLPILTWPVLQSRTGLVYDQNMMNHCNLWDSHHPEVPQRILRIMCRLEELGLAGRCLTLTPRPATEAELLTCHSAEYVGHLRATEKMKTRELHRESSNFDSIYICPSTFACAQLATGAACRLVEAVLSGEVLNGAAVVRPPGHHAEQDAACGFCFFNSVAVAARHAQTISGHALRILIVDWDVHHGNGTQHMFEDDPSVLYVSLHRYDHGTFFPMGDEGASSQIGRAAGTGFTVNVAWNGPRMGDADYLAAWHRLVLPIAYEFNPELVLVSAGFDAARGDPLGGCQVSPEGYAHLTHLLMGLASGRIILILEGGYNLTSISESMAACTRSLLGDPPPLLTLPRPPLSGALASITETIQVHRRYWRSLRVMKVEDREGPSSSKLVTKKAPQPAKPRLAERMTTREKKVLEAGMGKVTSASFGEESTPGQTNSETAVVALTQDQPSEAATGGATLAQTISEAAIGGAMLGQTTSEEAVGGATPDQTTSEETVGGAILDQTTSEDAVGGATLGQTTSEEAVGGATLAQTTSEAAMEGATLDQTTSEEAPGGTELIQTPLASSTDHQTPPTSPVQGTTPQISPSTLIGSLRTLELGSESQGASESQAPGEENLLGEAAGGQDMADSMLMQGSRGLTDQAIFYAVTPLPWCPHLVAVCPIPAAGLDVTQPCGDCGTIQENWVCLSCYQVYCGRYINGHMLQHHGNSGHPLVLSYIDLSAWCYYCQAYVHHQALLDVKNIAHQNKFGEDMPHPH

[3] = Elimination rate constant in ICR mouse at 5 mg/kg, iv up to 24 hrs by LC-MS/MS analysis; assay type: ADME, organism-based; details: in vivo
[4] = MRT in ICR mouse at 20 mg/kg, ip up to 24 hrs by LC-MS/MS analysis; assay type: ADME, organism-based; details: in vivo
[5] = Elimination rate constant in ICR mouse at 20 mg/kg, po up to 24 hrs by LC-MS/MS analysis; assay type: ADME, organism-based; details: in vivo
[6] = MRT in ICR mouse at 5 mg/kg, iv up to 24 hrs by LC-MS/MS analysis; assay type: ADME, organism-based; details: in vivo
[7] = Cmax in ICR mouse at 20 mg/kg, ip up to 24 hrs by LC-MS/MS analysis; assay type: ADME, organism-based; set-up: route intraperitoneal, dose 20 mg/kg, time <=24; details: in vivo

Histone deacetylase 3, sequence (O15379 whole entry): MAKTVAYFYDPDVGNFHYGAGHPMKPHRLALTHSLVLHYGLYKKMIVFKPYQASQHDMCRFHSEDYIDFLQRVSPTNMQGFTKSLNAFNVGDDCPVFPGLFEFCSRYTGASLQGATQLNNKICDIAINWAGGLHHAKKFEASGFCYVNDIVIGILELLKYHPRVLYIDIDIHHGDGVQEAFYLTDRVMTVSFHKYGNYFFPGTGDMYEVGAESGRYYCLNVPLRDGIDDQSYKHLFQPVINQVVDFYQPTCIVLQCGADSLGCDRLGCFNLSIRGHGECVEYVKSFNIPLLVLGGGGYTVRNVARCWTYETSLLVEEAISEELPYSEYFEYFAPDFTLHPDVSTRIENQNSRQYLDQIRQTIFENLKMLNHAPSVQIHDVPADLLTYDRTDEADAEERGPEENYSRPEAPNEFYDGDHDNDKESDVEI

Question: With `Nc1ccccc1NC(=O)c1ccc(CCn2ncc3c2nc(N)n2nc(-c4ccco4)nc32)cc1` as the molecule, how does the Vd [1] read?
Answer: Its Vd is 1.19 L/kg.

Question: And the Ki (Adenosine receptor A3)?
Answer: The Ki was over 10 µM.

Question: What about the IC50 (Histone deacetylase 3) of the same molecule?
Answer: The IC50 was 0.449 µM.

Question: What about the IC50 (Histone deacetylase 7) of the same molecule?
Answer: Its IC50 is over 10 µM.

Question: And the IC50 [2]?
Answer: The IC50 was over 10 µM.

Question: What about the k el at 24 h [3] of the same molecule?
Answer: The k el at 24 h was 0.000678 s⁻¹.

Question: What about the MRT [4] of the same molecule?
Answer: The MRT was 2.61 h.

Question: And the k el at 24 h [5]?
Answer: Its k el at 24 h is 9.86e-05 s⁻¹.

Question: And the MRT [6]?
Answer: Its MRT is 0.334 h.

Question: And the Cmax [7]?
Answer: Its Cmax is 2160 ng/mL.

Reference: ChEMBL document CHEMBL5030563, “Structure-Based Design of Dual-Acting Compounds Targeting Adenosine A2A Receptor and Histone Deacetylase as Novel Tumor Immunotherapeutic Agents” (J Med Chem, 2021)
